According to patent US12077503B2, “Substituted cyclic amides and their use as herbicides” (FMC CORPORATION, priority 2015, dated 2024):

Assays:
Assay type in all cases: in vivo
[1] = test system: ivy-leaved morning glory (Ipomoea hederacea); experiment: Test G Post-Emergence Protocol; conditions: Ipomoea, post-emergence, 312 h, read-out: Morningglory, Ivy-leaved damage rating; for pest or weed control at 15.625 g/ha: 15.625 g ai/ha, evaluated after 13 days (100=total damage to plant; 0=no damage to plant); for pest or weed control at 62.5 g/ha: 62.5 g ai/ha; for pest or weed control at 62.5 g/ha / pest or weed control at 250 g/ha: evaluated after 13 days, 100=total damage to plant, 0=no damage to plant; for pest or weed control at 250 g/ha: 250 g ai/ha
Outline: (§1)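 Eight days post-sowing, plants received a spray of test compound (acetone/water 50:50, 0.5% Tween 20) at 15.625, 62.5 or 250 g/ha. Glasshouse regime thereafter: 24/16 °C, 14 h light, 65% humidity. Assessment after 13 days on a 0–100 damage scale.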

[2] = test system: giant foxtail (Setaria faberi); experiment: Test G Post-Emergence Protocol; conditions: Setaria faberi, post-emergence, 312 h, read-out: Foxtail, Giant damage rating; for pest or weed control at 15.625 g/ha: 15.625 g ai/ha, evaluated after 13 days (100=total damage to plant; 0=no damage to plant); for pest or weed control at 62.5 g/ha: 62.5 g ai/ha; for pest or weed control at 62.5 g/ha / pest or weed control at 250 g/ha: evaluated after 13 days, 100=total damage to plant, 0=no damage to plant; for pest or weed control at 250 g/ha: 250 g ai/ha
Outline: as §1

[3] = test system: redroot pigweed (Amaranthus retroflexus); experiment: Test G Post-Emergence Protocol; conditions: Amaranthus retroflexus, post-emergence, 312 h, read-out: Pigweed, Redroot damage rating; for pest or weed control at 15.625 g/ha: 15.625 g ai/ha, evaluated after 13 days (100=total damage to plant; 0=no damage to plant); for pest or weed control at 62.5 g/ha: 62.5 g ai/ha; for pest or weed control at 62.5 g/ha / pest or weed control at 250 g/ha: evaluated after 13 days, 100=total damage to plant, 0=no damage to plant; for pest or weed control at 250 g/ha: 250 g ai/ha
Outline: as §1

[4] = test system: barnyardgrass (Echinochloa crus-galli); experiment: Test G Post-Emergence Protocol; conditions: Echinochloa crus-galli, post-emergence, 312 h, read-out: Barnyardgrass damage rating; for pest or weed control at 15.625 g/ha: 15.625 g ai/ha, evaluated after 13 days (100=total damage to plant; 0=no damage to plant); for pest or weed control at 62.5 g/ha: 62.5 g ai/ha; for pest or weed control at 62.5 g/ha / pest or weed control at 250 g/ha: evaluated after 13 days, 100=total damage to plant, 0=no damage to plant; for pest or weed control at 250 g/ha: 250 g ai/ha
Outline: as §1

corn (Zea mays) [5] = experiment: Test G Post-Emergence Protocol; conditions: Zea mays, post-emergence, 312 h, read-out: Corn damage rating; for plant injury at 15.625 g/ha: 15.625 g ai/ha, evaluated after 13 days (100=total damage to plant; 0=no damage to plant); for plant injury at 62.5 g/ha: 62.5 g ai/ha; for plant injury at 62.5 g/ha / plant injury at 250 g/ha: evaluated after 13 days, 100=total damage to plant, 0=no damage to plant; for plant injury at 250 g/ha: 250 g ai/ha
Outline: as §1

[6] = test system: velvetleaf (Abutilon theophrasti); experiment: Test G Post-Emergence Protocol; conditions: Abutilon theophrasti, post-emergence, 312 h, read-out: Velvetleaf damage rating; for pest or weed control at 15.625 g/ha: 15.625 g ai/ha, evaluated after 13 days (100=total damage to plant; 0=no damage to plant); for pest or weed control at 62.5 g/ha: 62.5 g ai/ha; for pest or weed control at 62.5 g/ha / pest or weed control at 250 g/ha: evaluated after 13 days, 100=total damage to plant, 0=no damage to plant; for pest or weed control at 250 g/ha: 250 g ai/ha
Outline: as §1

[7] = test system: ivy-leaved morning glory (Ipomoea hederacea); experiment: Test G Pre-Emergence Protocol; conditions: Ipomoea, pre-emergence, 312 h, evaluated after 13 days; for pest or weed control at 15.625 g/ha: 15.625 g ai/ha; for pest or weed control at 15.625 g/ha / pest or weed control at 250 g/ha: read-out: Morningglory, Ivy-leaved damage rating (100=total damage to plant; 0=no damage to plant); for pest or weed control at 62.5 g/ha: 62.5 g ai/ha, 100=total damage to plant, 0=no damage to plant, read-out: Morningglory, Ivy-leaved damage rating; for pest or weed control at 250 g/ha: 250 g ai/ha
Outline: (§2)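 One day after sowing, pots are treated with a spray of test compound formulated in acetone/water 50:50 plus 0.5% Tween 20, giving 15.625, 62.5 or 250 g/ha. Evaluation on a 0–100 damage scale follows 13 days of glasshouse growth.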

[8] = test system: giant foxtail (Setaria faberi); experiment: Test G Pre-Emergence Protocol; conditions: Setaria faberi, pre-emergence, 312 h, evaluated after 13 days; for pest or weed control at 15.625 g/ha: 15.625 g ai/ha; for pest or weed control at 15.625 g/ha / pest or weed control at 250 g/ha: read-out: Foxtail, Giant damage rating (100=total damage to plant; 0=no damage to plant); for pest or weed control at 62.5 g/ha: 62.5 g ai/ha, 100=total damage to plant, 0=no damage to plant, read-out: Foxtail, Giant damage rating; for pest or weed control at 250 g/ha: 250 g ai/ha
Outline: as §2

[9] = test system: redroot pigweed (Amaranthus retroflexus); experiment: Test G Pre-Emergence Protocol; conditions: Amaranthus retroflexus, pre-emergence, 312 h, evaluated after 13 days; for pest or weed control at 15.625 g/ha: 15.625 g ai/ha; for pest or weed control at 15.625 g/ha / pest or weed control at 250 g/ha: read-out: Pigweed, Redroot damage rating (100=total damage to plant; 0=no damage to plant); for pest or weed control at 62.5 g/ha: 62.5 g ai/ha, 100=total damage to plant, 0=no damage to plant, read-out: Pigweed, Redroot damage rating; for pest or weed control at 250 g/ha: 250 g ai/ha
Outline: as §2

[10] = test system: barnyardgrass (Echinochloa crus-galli); experiment: Test G Pre-Emergence Protocol; conditions: Echinochloa crus-galli, pre-emergence, 312 h, evaluated after 13 days; for pest or weed control at 15.625 g/ha: 15.625 g ai/ha; for pest or weed control at 15.625 g/ha / pest or weed control at 250 g/ha: read-out: Barnyardgrass damage rating (100=total damage to plant; 0=no damage to plant); for pest or weed control at 62.5 g/ha: 62.5 g ai/ha, 100=total damage to plant, 0=no damage to plant, read-out: Barnyardgrass damage rating; for pest or weed control at 250 g/ha: 250 g ai/ha
Outline: as §2

corn (Zea mays) [11] = experiment: Test G Pre-Emergence Protocol; conditions: Zea mays, pre-emergence, 312 h, evaluated after 13 days; for plant injury at 15.625 g/ha: 15.625 g ai/ha; for plant injury at 15.625 g/ha / plant injury at 250 g/ha: read-out: Corn damage rating (100=total damage to plant; 0=no damage to plant); for plant injury at 62.5 g/ha: 62.5 g ai/ha, 100=total damage to plant, 0=no damage to plant, read-out: Corn damage rating; for plant injury at 250 g/ha: 250 g ai/ha
Outline: as §2

[12] = test system: velvetleaf (Abutilon theophrasti); experiment: Test G Pre-Emergence Protocol; conditions: Abutilon theophrasti, pre-emergence, 312 h, evaluated after 13 days; for pest or weed control at 15.625 g/ha: 15.625 g ai/ha; for pest or weed control at 15.625 g/ha / pest or weed control at 250 g/ha: read-out: Velvetleaf damage rating (100=total damage to plant; 0=no damage to plant); for pest or weed control at 62.5 g/ha: 62.5 g ai/ha, 100=total damage to plant, 0=no damage to plant, read-out: Velvetleaf damage rating; for pest or weed control at 250 g/ha: 250 g ai/ha
Outline: as §2

CN1C[C@H](c2ccc(C(F)(F)F)cc2)[C@@H](C(=O)Nc2cccc(Cl)c2S(C)(=O)=O)C1=O (racemic) [Compound 1661]
0%: pest or weed control at 15.625 g/ha [1] | pest or weed control at 62.5 g/ha [1] | pest or weed control at 250 g/ha [1] | pest or weed control at 15.625 g/ha [2] | pest or weed control at 15.625 g/ha [3] | pest or weed control at 15.625 g/ha [4] | plant injury at 15.625 g/ha (corn (Zea mays) [5]) | plant injury at 62.5 g/ha (corn (Zea mays) [5]) | plant injury at 250 g/ha (corn (Zea mays) [5]) | pest or weed control at 15.625 g/ha [6] | pest or weed control at 62.5 g/ha [6] | pest or weed control at 15.625 g/ha [7] | pest or weed control at 62.5 g/ha [7] | pest or weed control at 15.625 g/ha [8] | pest or weed control at 15.625 g/ha [9] | pest or weed control at 62.5 g/ha [9] | pest or weed control at 15.625 g/ha [10] | pest or weed control at 62.5 g/ha [10] | pest or weed control at 250 g/ha [10] | plant injury at 15.625 g/ha (corn (Zea mays) [11]) | plant injury at 62.5 g/ha (corn (Zea mays) [11]) | pest or weed control at 15.625 g/ha [12] | pest or weed control at 62.5 g/ha [12] | pest or weed control at 250 g/ha [12]
40%: pest or weed control at 250 g/ha [3]
60%: pest or weed control at 62.5 g/ha [2] | pest or weed control at 250 g/ha [2]
10%: pest or weed control at 250 g/ha [4] | pest or weed control at 250 g/ha [6] | pest or weed control at 250 g/ha [7] | plant injury at 250 g/ha (corn (Zea mays) [11])
50%: pest or weed control at 62.5 g/ha [8]
20%: pest or weed control at 62.5 g/ha [3] | pest or weed control at 62.5 g/ha [4] | pest or weed control at 250 g/ha [9]
80%: pest or weed control at 250 g/ha [8]

COc1cc(Cl)cc(C2CN(C)C(=O)C2C(=O)Nc2cccc(F)c2F)c1 (stereo not drawn) [Compound 1690]
10%: plant injury at 15.625 g/ha (corn (Zea mays) [5])
90%: pest or weed control at 250 g/ha [2] | pest or weed control at 250 g/ha [4] | pest or weed control at 250 g/ha [8] | pest or weed control at 250 g/ha [10]
30%: pest or weed control at 250 g/ha [12]
50%: pest or weed control at 15.625 g/ha [10]
20%: pest or weed control at 15.625 g/ha [1] | pest or weed control at 62.5 g/ha [3] | pest or weed control at 62.5 g/ha [6] | pest or weed control at 250 g/ha [9] | plant injury at 62.5 g/ha (corn (Zea mays) [11])
40%: pest or weed control at 250 g/ha [3] | pest or weed control at 250 g/ha [6]
80%: pest or weed control at 15.625 g/ha [2] | pest or weed control at 62.5 g/ha [2] | pest or weed control at 62.5 g/ha [4] | plant injury at 250 g/ha (corn (Zea mays) [5]) | pest or weed control at 62.5 g/ha [8] | pest or weed control at 62.5 g/ha [10]
0%: pest or weed control at 15.625 g/ha [3] | pest or weed control at 15.625 g/ha [6] | pest or weed control at 15.625 g/ha [7] | pest or weed control at 62.5 g/ha [7] | pest or weed control at 250 g/ha [7] | pest or weed control at 15.625 g/ha [9] | pest or weed control at 62.5 g/ha [9] | plant injury at 15.625 g/ha (corn (Zea mays) [11]) | pest or weed control at 15.625 g/ha [12] | pest or weed control at 62.5 g/ha [12]
60%: pest or weed control at 250 g/ha [1]
70%: pest or weed control at 62.5 g/ha [1] | pest or weed control at 15.625 g/ha [4] | plant injury at 62.5 g/ha (corn (Zea mays) [5]) | pest or weed control at 15.625 g/ha [8] | plant injury at 250 g/ha (corn (Zea mays) [11])
